Measurements: patent US20040081972A1, “Novel physiologically active peptide and use thereof” (priority 2000, published 2004)

What was measured:
Format in all cases: cell-based
[1] = test system: blood vessel of an apoaequorin transgenic mouse; test: Intracellular calcium (aequorin luminescence) in blood vessel pieces of apoaequorin transgenic mouse; details: final concentration 1 μmol/l
Experimental: (§1) In order to evaluate physiological activities of the peptides prepared in Example 1, the prepared peptides were allowed to act upon organs excised from the living body, and changes in the concentration of an intracellular signal transduction substance in cells constituting the organs were measured.
(§2) In order to measure changes in the concentration of an intracellular signal transduction substance in cells constituting the organs, a transgenic mouse prepared by integrated an apoaequorin gene expression vector into a chromosome was used. Specifically, a female mouse derived from the transgenic mouse disclosed in Reference Example 4 as an individual number 98075-04-6 was used in the test. The transgenic mouse was prepared and reared as an SPF animal in a clean room, and was not contaminated with pathogens including mouse hepatitis virus, Sendai virus, mycoplasma and Tyzzer bacterium.
(§3) Aequorin is a bioluminescent protein complex which is present in the umbrella region of luminescent Aequorea victoria. Aequorin is constituted from its protein moiety apoaequorin, its luminescence substrate coelent razin and molecular oxygen, and emits light by its binding with calcium ion. Since expression of the apoaequorin protein has been confirmed in at least thymus, spleen, abdominal muscle, diaphragm, kidney, crystalline lens, pancreas, fat tissue, liver, skull, blood vessel, ovary, womb and adrenal gland of the transgenic mouse used in the test, it was able to monitor changes in the intracellular calcium ion concentration in these organs with a high sensitivity.
(§4) Organs were prepared from offsprings borne from the female of individual number 98075-04-6 to examine the activities of the peptides produced in Example 1. After the offsprings were killed, the thymus, spleen, abdominal muscle, diaphragm, kidney, crystalline lens, pancreas, fat tissue, liver, skull, blood vessel, ovary, womb and adrenal gland were excised. Each of the excised organs was cut into small cubes of about 1 to 2 mm square in PBS containing 10 units/ml of heparin sodium and thoroughly washed by changing the solution. Next, three pieces of each of the organ samples thus prepared were put into a 5 ml capacity tube (Rohren-Tubes; No. 55.476, manufactured by Sarstedt) which had been charged with RPMI 1640 medium containing 200 μl of 10 μmol/l coelenterazine (manufactured by Molecular Probes), and cultured at 37° C. for 5 hours. Five hours after, various substances shown below dissolved in RPMI 1640 medium were added at 200 μl, and the luminescence was measured just after the addition at 1 second intervals using a luminometer AutoLumat LB953 (manufactured by BERTHOLD).

[2] = test system: womb of an apoaequorin transgenic mouse; test: Intracellular calcium (aequorin luminescence) in womb pieces of apoaequorin transgenic mouse; details: final concentration 1 μmol/l
Experimental: as §1
(§5) In order to measure changes in the concentration of an intracellular signal transduction substance in cells constituting the organs, a transgenic mouse prepared by integrated an apoaequorin gene expression vector into a chromosome was used. Specifically, a female mouse derived from the transgenic mouse disclosed in Reference Example 4 as an individual number 98075-04-6 was used in the test. […]
(§6) Aequorin is a bioluminescent protein complex which is present in the umbrella region of luminescent Aequorea victoria. Aequorin is constituted from its protein moiety apoaequorin, its luminescence substrate coelent razin and molecular oxygen, and emits light by its binding with calcium ion. […]
(§7) Organs were prepared from offsprings borne from the female of individual number 98075-04-6 to examine the activities of the peptides produced in Example 1. […] Five hours after, various substances shown below dissolved in RPMI 1640 medium were added at 200 μl, and the luminescence was measured just after the addition at 1 second intervals using a luminometer AutoLumat LB953 (manufactured by BERTHOLD).

[3] = test system: adrenal gland of an apoaequorin transgenic mouse; test: Intracellular calcium (aequorin luminescence) in adrenal gland pieces of apoaequorin transgenic mouse; details: final concentration 1 μmol/l
Experimental: as §1, §5, §6, §7

[4] = test system: spleen of an apoaequorin transgenic mouse; test: Intracellular calcium (aequorin luminescence) in spleen pieces of apoaequorin transgenic mouse
Experimental: as §1, §2, §3, §4
Organs were prepared from offsprings borne from the female of individual number 98075-04-6 to examine the activities of the peptides produced in Example 1. After the offsprings were killed, the spleen was excised. The excised spleen was cut into small cubes of about 1 to 2 mm square in PBS containing 10 units/ml of heparin sodium and thoroughly washed by changing the solution. Next, three pieces of the prepared spleen sample were put into a 5 ml capacity tube (Rohren-Tubes; No. 55.476, manufactured by Sarstedt) which had been charged with RPMI 1640 medium containing 200 μl of 10 μmol/l coelenterazine (manufactured by Molecular Probes), and cultured at 37° C. for 5 hours. Five hours after, various substances shown below dissolved in RPMI 1640 medium were added at 200 μl, and the luminescence was measured just after the addition at 1 second intervals using a luminometer AutoLumat LB953 (manufactured by BERTHOLD).
RPMI 1640, a peptide prepared in Example 1 (final concentration: 10 nmol/l), a peptide prepared in Example 1 (final concentration: 100 nmol/l), a peptide prepared in Example 1 (final concentration: 1 μmol/l), a peptide prepared in Example 1 (final concentration; 10 μmol/l), ATP (final concentration: 100 μmol/l), A23187 (final concentration: 1 μmol/l) and Triton X-100 (final concentration: 2%) were added in order. […]

[5] = test system: skull (cranial bone) of an apoaequorin transgenic mouse; test: Intracellular calcium (aequorin luminescence) in skull (cranial bone) pieces of apoaequorin transgenic mouse; details: final concentration 10 μmol/l
Experimental: as §1, §2, §3, §4

[6] = test system: spleen of an apoaequorin transgenic mouse; test: Intracellular calcium (aequorin luminescence) in spleen pieces of apoaequorin transgenic mouse; details: final concentration 8 μmol/l

Row | Substance | luminescence (intracellular calcium increase) [1] | luminescence (intracellular calcium increase) [2] | luminescence (intracellular calcium increase) [3] | final concentration from which concentration-dependent luminescence was observed ([4]; 10 nmol/l, 100 nmol/l, 1 μmol/l, 10 μmol/l added in order) | luminescence (intracellular calcium increase) ([4]; final concentration 10 μmol/l) | luminescence (intracellular calcium increase) [5] | luminescence (intracellular calcium increase) [6]
1 | angiotensin II [purchased from Research Biochemicals International (product code: A-151)] | Strong luminescence | Strong luminescence | Strong luminescence | – | – | – | –
2 | H-Met-Met-Glu-Lys-Leu-Gly-Val-Pro-Lys-Thr-His-Leu-Glu-Met-Lys-Lys-Met-Ile-Ser-Glu-Val-Thr-Gly-Gly-Val-Ser-Asp-Thr-Ile-Ser-Tyr-Arg-Asp-Phe-Val-Asn-Met-Met-Leu-NH2 (H-MMEKLGVPKTHLEMKKMISEVTGGVSDTISYRDFVNMML-NH2) [Peptide 3] | – | – | – | 1 µmol/L | Strong luminescence | Strong luminescence | Strong luminescence
